Key:
[1] = target: T1, human SGLT2 (Homo sapiens, UniProt P31639); assay: Assay for inhibitory effects on human SGLT2 activity (uptake of methyl-α-D-glucopyranoside in CS2-5E cells); type: cell-based; conditions: inhibition of 14C α-MG uptake, CHO-K1 derived CS2-5E cells stably expressing human SGLT2, 1 mM α-MG, 37° C., 1 hour
T1 construct: expressed in transfected cells
T1 sequence (P31639 1-672): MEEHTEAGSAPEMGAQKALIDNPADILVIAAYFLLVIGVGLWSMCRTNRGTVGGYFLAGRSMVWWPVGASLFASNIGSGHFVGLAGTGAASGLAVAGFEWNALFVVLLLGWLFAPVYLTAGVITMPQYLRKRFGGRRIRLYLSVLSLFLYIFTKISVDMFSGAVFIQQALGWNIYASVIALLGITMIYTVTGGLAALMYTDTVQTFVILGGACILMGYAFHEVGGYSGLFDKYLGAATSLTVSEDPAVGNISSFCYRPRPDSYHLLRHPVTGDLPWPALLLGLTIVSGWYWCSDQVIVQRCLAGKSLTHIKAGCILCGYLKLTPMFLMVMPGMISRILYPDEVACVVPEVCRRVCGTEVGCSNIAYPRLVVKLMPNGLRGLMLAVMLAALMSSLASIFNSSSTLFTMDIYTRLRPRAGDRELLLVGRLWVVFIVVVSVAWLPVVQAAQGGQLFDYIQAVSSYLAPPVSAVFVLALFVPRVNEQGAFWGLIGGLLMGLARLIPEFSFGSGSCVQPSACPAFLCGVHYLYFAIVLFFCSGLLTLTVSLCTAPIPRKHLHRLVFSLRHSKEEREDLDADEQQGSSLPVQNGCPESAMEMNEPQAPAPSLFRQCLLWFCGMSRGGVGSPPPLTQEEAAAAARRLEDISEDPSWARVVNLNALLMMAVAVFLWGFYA
Method: Assay for Inhibitory Effects on Human SGLT2 Activity
1) Cloning and Construction of the Vector Expressing Human SGLT2
(§1) The cDNA library was prepared for PCR amplification by reverse transcription from total RNA deprived from human kidney (Ori gene) using oligo-dT as a primer. Using this cDNA library as a template, the DNA fragment coding 2 to 2039 bp of human SGLT2 (ACCESSION: M95549, M95299), which was reported by R. G. Wells et al., was amplified by PCR method and inserted into the multi-cloning site of pcDNA3.1(−) (Invitrogen). The DNA sequence inserted was perfectly matched to the previously reported sequence.
2) Establishment of Cell Line Stably Expressing Human SGLT2
(§2) The expression vector of human SGLT2 was digested by Sca I into a linear DNA. The linear DNA was transfected into CHO-K1 cells by means of lipofection (Effectene Transfection Reagent: QIAGEN). Neomycin resistant cell lines were selected by culture in the medium containing G418 (1 mg/mL, LIFE TECHNOLOGIES), and then the activity against the uptake of methyl-α-D-glucopyranoside was measured by the method described below. […] CS2-5E cells were cultured in the presence of G418 at 200 μg/mL. […]
CS2-5E cells were seeded into a 96-well culture plate at a density of 3×10^4 cells/well and cultured for 2 days, and were used in the uptake assay. […] Radioactivity was measured by means of micro-scintillation counter TopCount (Packard). […]

[2] = target: T2, human SGLT1 (Homo sapiens, UniProt P13866); assay: Assay for inhibitory effects on human SGLT1 activity (uptake of methyl-α-D-glucopyranoside in CS1-5-11D cells); type: cell-based; conditions: inhibition of 14C α-MG uptake, CHO-K1 derived CS1-5-11D cells stably expressing human SGLT1, 1 mM α-MG, 37° C., 1 hour
T2 construct: expressed in transfected cells
T2 sequence (P13866 1-664): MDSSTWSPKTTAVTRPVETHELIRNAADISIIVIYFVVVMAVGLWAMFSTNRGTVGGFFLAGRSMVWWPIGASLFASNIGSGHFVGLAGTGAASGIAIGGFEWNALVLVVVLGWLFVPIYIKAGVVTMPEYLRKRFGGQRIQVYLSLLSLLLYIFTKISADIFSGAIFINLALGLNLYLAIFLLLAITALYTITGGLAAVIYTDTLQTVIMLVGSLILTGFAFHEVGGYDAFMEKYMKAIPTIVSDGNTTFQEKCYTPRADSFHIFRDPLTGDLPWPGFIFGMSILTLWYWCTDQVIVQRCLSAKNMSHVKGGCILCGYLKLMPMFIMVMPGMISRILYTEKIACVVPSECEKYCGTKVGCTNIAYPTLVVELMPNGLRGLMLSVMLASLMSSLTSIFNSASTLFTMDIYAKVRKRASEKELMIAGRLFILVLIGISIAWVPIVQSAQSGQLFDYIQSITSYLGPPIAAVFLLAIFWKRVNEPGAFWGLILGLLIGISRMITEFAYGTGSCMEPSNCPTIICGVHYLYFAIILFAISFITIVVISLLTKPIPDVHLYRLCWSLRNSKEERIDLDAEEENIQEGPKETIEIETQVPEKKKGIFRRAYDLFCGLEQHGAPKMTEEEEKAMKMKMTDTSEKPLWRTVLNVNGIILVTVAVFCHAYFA
Method: Assay for Inhibitory Effects on Human SGLT1 Activity
1) Cloning and Construction of the Vector Expressing Human SGLT1
as §1, with “small intestine” for “kidney”, “1” for “2”, “2005” for “2039”, “SGLT1” for “SGLT2”, “M24847),” for “M95549, M95299),”, “Hediger” for “R. G. Wells”
2) Establishment of Cell Line Stably Expressing Human SGLT1
as §2, with “SGLT1” for “SGLT2”, “CS1-5-11D” for “CS2-5E”
CS1-5-11D cells were seeded into a 96-well culture plate at a density of 3×10^4 cells/well and cultured for 2 days, and were used in the uptake assay. […] Radioactivity was measured by means of micro-scintillation counter TopCount (Packard). […]

[3] = system: diabetic rats; assay: Assay for inhibitory effects on blood glucose level increase in rats (liquid meal tolerance test); type: in vivo, Wistar rats; conditions: liquid meal load, mean±S.E.; for Plasma glucose concentration 0.5 h: 0.5 hour after administration; for Plasma glucose concentration 1 h: 1 hour after administration; for Plasma glucose concentration 0 h: pretreatment (0 h)
Method: Assay for Inhibitory Effects on Blood Glucose Level Increase in Rats
1) Preparation of Diabetic Rat Model
Male Wistar rats (Japan Charles River), aged 8 weeks old, were injected nicotinamide (230 mg/kg) intraperitoneally. Fifteen minutes after injection, they were injected streptozotocin (85 mg/kg) intravenously from tail vain under anesthesia with ether. After a week, rats were fasted overnight and then glucose tolerance test (2 g/kg) was done.
2) Liquid Meal Tolerance Test
After overnight fasted, the diabetic rats were orally administered a test compound (0.5, 2 mg/kg), which was dissolved in distilled water, in the drug-treating group, or distilled water alone in a control group. Immediately after the compound administration, 4.5 kcal/body of liquid meal (No. 038, Control diet, assorted with dextrin and maltose; Oriental Yeast Co., Ltd.) was loaded orally. The blood was collected from tail artery immediately before and after administration with the time course, and treated with heparin immediately. The blood was centrifuged, and the plasma was collected to quantify the plasma glucose concentration by glucose oxidase method. The values in the Table are presented as the mean±S.E.

## OCCn1nc(O[C@@H]2O[C@H](CO)[C@@H](O)[C@H](O)[C@H]2O)c2c(CCc3ccccc3)ccnc21 [Example 17, 3-(β-D-Glucopyranosyloxy)-1-(2-hydroxyethyl)-4-(2-phenylethyl)-1H-pyrazolo[3,4-b]pyridine]
[1]
  IC50: 68 nM

## Cc1cc(CCc2cccc3[nH]nc(O[C@@H]4O[C@H](CO)[C@@H](O)[C@H](O)[C@H]4O)c23)ccc1O [Example 5, 3-(β-D-Glucopyranosyloxy)-4-[2-(4-hydroxy-3-methylphenyl)-ethyl]-1H-indazole]
[2]
  IC50: 12 nM

## OC[C@H]1O[C@@H](Oc2n[nH]c3cccc(CCc4ccccc4)c23)[C@H](O)[C@@H](O)[C@@H]1O [Example 4, 3-(β-D-Glucopyranosyloxy)-4-(2-phenylethyl)-1H-indazole]
[1]
  IC50: 90 nM

## NC(=O)Cn1nc(O[C@@H]2O[C@H](CO)[C@@H](O)[C@H](O)[C@H]2O)c2c(CCc3ccc(O)cc3)ccnc21 [Example 12, 1-Carbamoylmethyl-3-(β-D-glucopyranosyloxy)-4-[2-(4-hydroxyphenyl)ethyl]-1H-pyrazolo[3,4-b]pyridine]
[2]
  IC50: 100 nM

## OCCn1nc(O[C@@H]2O[C@H](CO)[C@@H](O)[C@H](O)[C@H]2O)c2c(CCc3ccc(O)cc3)cccc21 [Example 59, 3-(β-D-Glucopyranosyloxy)-1-(2-hydroxyethyl)-4-[2-(4-hydroxyphenyl)ethyl]-1H-indazole]
[3]; 0.5 mg/kg orally
  Plasma glucose concentration 0.5 h: 173 ± 7 mg/dL
  Plasma glucose concentration 1 h: 186 ± 6 mg/dL
  Plasma glucose concentration 0 h: 109 ± 2 mg/dL
[3]; 2 mg/kg orally
  Plasma glucose concentration 0.5 h: 141 ± 3 mg/dL
  Plasma glucose concentration 1 h: 153 ± 4 mg/dL
  Plasma glucose concentration 0 h: 115 ± 3 mg/dL

From patent US7998975B2, “Nitrogenous fused-ring derivatives, medicinal compositions containing the derivatives, and use thereof as drugs” (Kissei Pharmaceutical Co., Ltd., priority 2004, dated 2011)
